Assay results published in US20240415914A1, “Water Dispersible Cannabinoid Compositions” (priority 2021, published 2024).
Where two headings read alike, the source gives them in different places.

Tests used:
[1] = assay type: physicochemical; conditions: stored at room temperature (21-25° C.)
Method: At each time period, 0.05 g of powder was dissolved in 10 ml-15 of ethanol, diluted to fall within the analytical range, and injected into the LCMSMS for analysis.

[2] = Stability of cannabinoid and Vitamin E components of Beverage 2 (AB Red) stored at 8° C. and 21-25° C., LCMSMS over 570 days
Method: The LCMSMS was calibrated for 0-50 ng/ml cannabinoids with the same resin material used in the preparation of the concentrates. At each time period, 100 μml of beverage was diluted with 10 ml of methanol and injected into the LCMSMS for analysis.

C=C(C)[C@@H]1CCC(C)=C[C@H]1c1c(O)cc(CCC)cc1O [CBDV, cannabidivarin]
Stability in Powder Concentrate (content by LCMSMS) ([1]; day 0): 0.050 mg/g powder
Stability in Powder Concentrate (content by LCMSMS) ([1]; day 1): 0.051 mg/g powder
Stability in Powder Concentrate (content by LCMSMS) ([1]; day 2): 0.051 mg/g powder
Stability in Powder Concentrate (content by LCMSMS) ([1]; day 3): 0.048 mg/g powder
Stability in Powder Concentrate (content by LCMSMS) ([1]; day 5): 0.050 mg/g powder
Stability in Powder Concentrate (content by LCMSMS) ([1]; day 8): 0.051 mg/g powder
Stability in Powder Concentrate (content by LCMSMS) ([1]; day 9): 0.049 mg/g powder
Stability in Powder Concentrate (content by LCMSMS) ([1]; day 10): 0.050 mg/g powder
Stability in Powder Concentrate (content by LCMSMS) ([1]; day 11): 0.051 mg/g powder
Stability in Powder Concentrate (content by LCMSMS) ([1]; day 12): 0.051 mg/g powder
Stability in Powder Concentrate (content by LCMSMS) ([1]; day 15): 0.050 mg/g powder
Stability in Powder Concentrate (content by LCMSMS) ([1]; day 16): 0.049 mg/g powder
Stability in Powder Concentrate (content by LCMSMS) ([1]; day 17): 0.051 mg/g powder
Stability in Powder Concentrate (content by LCMSMS) ([1]; day 18): 0.051 mg/g powder
Stability in Powder Concentrate (content by LCMSMS) ([1]; day 19): 0.048 mg/g powder
Stability in Powder Concentrate (content by LCMSMS) ([1]; day 22): 0.049 mg/g powder
Stability in Powder Concentrate (content by LCMSMS) ([1]; day 23): 0.050 mg/g powder
Stability in Powder Concentrate (content by LCMSMS) ([1]; day 24): 0.051 mg/g powder
Stability in Powder Concentrate (content by LCMSMS) ([1]; day 25): 0.052 mg/g powder
Stability in Powder Concentrate (content by LCMSMS) ([1]; day 26): 0.050 mg/g powder
Stability in Powder Concentrate (content by LCMSMS) ([1]; day 29): 0.049 mg/g powder
Stability in Powder Concentrate (content by LCMSMS) ([1]; day 30): 0.051 mg/g powder
Stability in Powder Concentrate (content by LCMSMS) ([1]; day 60): 0.050 mg/g powder
Stability in Powder Concentrate (content by LCMSMS) ([1]; day 90): 0.050 mg/g powder
Stability in Powder Concentrate (content by LCMSMS) ([1]; day 120): 0.050 mg/g powder
Stability in Powder Concentrate (content by LCMSMS) ([1]; day 150): 0.051 mg/g powder
Stability in Powder Concentrate (content by LCMSMS) ([1]; day 180): 0.050 mg/g powder
Stability in Powder Concentrate (content by LCMSMS) ([1]; day 210): 0.049 mg/g powder
Stability in Powder Concentrate (content by LCMSMS) ([1]; day 240): 0.052 mg/g powder
Stability in Powder Concentrate (content by LCMSMS) ([1]; day 270): 0.051 mg/g powder
Stability in Powder Concentrate (content by LCMSMS) ([1]; day 300): 0.049 mg/g powder
Stability in Powder Concentrate (content by LCMSMS) ([1]; day 330): 0.052 mg/g powder
Stability in Powder Concentrate (content by LCMSMS) ([1]; day 360): 0.050 mg/g powder
Stability in Powder Concentrate (content by LCMSMS) ([1]; day 390): 0.049 mg/g powder
Stability in Powder Concentrate (content by LCMSMS) ([1]; day 420): 0.051 mg/g powder
Stability in Powder Concentrate (content by LCMSMS) ([1]; day 450): 0.049 mg/g powder
Stability in Powder Concentrate (content by LCMSMS) ([1]; day 480): 0.051 mg/g powder
Stability in Powder Concentrate (content by LCMSMS) ([1]; day 510): 0.049 mg/g powder
Stability in Powder Concentrate (content by LCMSMS) ([1]; day 540): 0.052 mg/g powder
Stability in Powder Concentrate (content by LCMSMS) ([1]; day 570): 0.048 mg/g powder
Stability of Cannabinoids in AB Red ([2]; 8° C., 0 days): 0.200 µg/mL
Stability of Cannabinoids in AB Red ([2]; 8° C., 1 days): 0.194 µg/mL
Stability of Cannabinoids in AB Red ([2]; 8° C., 2 days): 0.197 µg/mL
Stability of Cannabinoids in AB Red ([2]; 8° C., 3 days): 0.199 µg/mL
Stability of Cannabinoids in AB Red ([2]; 8° C., 5 days): 0.198 µg/mL
Stability of Cannabinoids in AB Red ([2]; 8° C., 8 days): 0.198 µg/mL
Stability of Cannabinoids in AB Red ([2]; 8° C., 9 days): 0.201 µg/mL
Stability of Cannabinoids in AB Red ([2]; 8° C., 10 days): 0.194 µg/mL
Stability of Cannabinoids in AB Red ([2]; 8° C., 11 days): 0.195 µg/mL
Stability of Cannabinoids in AB Red ([2]; 8° C., 12 days): 0.198 µg/mL
Stability of Cannabinoids in AB Red ([2]; 8° C., 15 days): 0.194 µg/mL
Stability of Cannabinoids in AB Red ([2]; 8° C., 16 days): 0.195 µg/mL
Stability of Cannabinoids in AB Red ([2]; 8° C., 17 days): 0.195 µg/mL
Stability of Cannabinoids in AB Red ([2]; 8° C., 18 days): 0.195 µg/mL
Stability of Cannabinoids in AB Red ([2]; 8° C., 19 days): 0.199 µg/mL
Stability of Cannabinoids in AB Red ([2]; 8° C., 22 days): 0.200 µg/mL
Stability of Cannabinoids in AB Red ([2]; 8° C., 23 days): 0.194 µg/mL
Stability of Cannabinoids in AB Red ([2]; 8° C., 24 days): 0.197 µg/mL
Stability of Cannabinoids in AB Red ([2]; 8° C., 25 days): 0.199 µg/mL
Stability of Cannabinoids in AB Red ([2]; 8° C., 26 days): 0.199 µg/mL
Stability of Cannabinoids in AB Red ([2]; 8° C., 29 days): 0.197 µg/mL
Stability of Cannabinoids in AB Red ([2]; 8° C., 30 days): 0.200 µg/mL
Stability of Cannabinoids in AB Red ([2]; 8° C., 60 days): 0.199 µg/mL
Stability of Cannabinoids in AB Red ([2]; 8° C., 90 days): 0.196 µg/mL
Stability of Cannabinoids in AB Red ([2]; 8° C., 120 days): 0.193 µg/mL
Stability of Cannabinoids in AB Red ([2]; 8° C., 150 days): 0.198 µg/mL
Stability of Cannabinoids in AB Red ([2]; 8° C., 180 days): 0.192 µg/mL
Stability of Cannabinoids in AB Red ([2]; 8° C., 210 days): 0.193 µg/mL
Stability of Cannabinoids in AB Red ([2]; 8° C., 240 days): 0.192 µg/mL
Stability of Cannabinoids in AB Red ([2]; 8° C., 270 days): 0.195 µg/mL
Stability of Cannabinoids in AB Red ([2]; 8° C., 300 days): 0.193 µg/mL
Stability of Cannabinoids in AB Red ([2]; 8° C., 330 days): 0.191 µg/mL
Stability of Cannabinoids in AB Red ([2]; 8° C., 390 days): 0.194 µg/mL
Stability of Cannabinoids in AB Red ([2]; 8° C., 420 days): 0.193 µg/mL
Stability of Cannabinoids in AB Red ([2]; 8° C., 450 days): 0.195 µg/mL
Stability of Cannabinoids in AB Red ([2]; 8° C., 480 days): 0.190 µg/mL
Stability of Cannabinoids in AB Red ([2]; 8° C., 510 days): 0.184 µg/mL
Stability of Cannabinoids in AB Red ([2]; 8° C., 540 days): 0.185 µg/mL
Stability of Cannabinoids in AB Red ([2]; 8° C., 570 days): 0.183 µg/mL
Stability of Cannabinoids in AB Red ([2]; 21-25° C., 0 days): 0.20 µg/mL
Stability of Cannabinoids in AB Red ([2]; 21-25° C., 1 days): 0.20 µg/mL
Stability of Cannabinoids in AB Red ([2]; 21-25° C., 2 days): 0.20 µg/mL
Stability of Cannabinoids in AB Red ([2]; 21-25° C., 3 days): 0.20 µg/mL
Stability of Cannabinoids in AB Red ([2]; 21-25° C., 5 days): 0.19 µg/mL
Stability of Cannabinoids in AB Red ([2]; 21-25° C., 8 days): 0.20 µg/mL
Stability of Cannabinoids in AB Red ([2]; 21-25° C., 9 days): 0.20 µg/mL
Stability of Cannabinoids in AB Red ([2]; 21-25° C., 10 days): 0.20 µg/mL
Stability of Cannabinoids in AB Red ([2]; 21-25° C., 11 days): 0.20 µg/mL
Stability of Cannabinoids in AB Red ([2]; 21-25° C., 12 days): 0.20 µg/mL
Stability of Cannabinoids in AB Red ([2]; 21-25° C., 15 days): 0.20 µg/mL
Stability of Cannabinoids in AB Red ([2]; 21-25° C., 16 days): 0.19 µg/mL
Stability of Cannabinoids in AB Red ([2]; 21-25° C., 17 days): 0.20 µg/mL
Stability of Cannabinoids in AB Red ([2]; 21-25° C., 18 days): 0.20 µg/mL
Stability of Cannabinoids in AB Red ([2]; 21-25° C., 19 days): 0.19 µg/mL
Stability of Cannabinoids in AB Red ([2]; 21-25° C., 22 days): 0.20 µg/mL
Stability of Cannabinoids in AB Red ([2]; 21-25° C., 23 days): 0.19 µg/mL
Stability of Cannabinoids in AB Red ([2]; 21-25° C., 24 days): 0.19 µg/mL
Stability of Cannabinoids in AB Red ([2]; 21-25° C., 25 days): 0.19 µg/mL
Stability of Cannabinoids in AB Red ([2]; 21-25° C., 26 days): 0.19 µg/mL
Stability of Cannabinoids in AB Red ([2]; 21-25° C., 29 days): 0.19 µg/mL
Stability of Cannabinoids in AB Red ([2]; 21-25° C., 30 days): 0.20 µg/mL
Stability of Cannabinoids in AB Red ([2]; 21-25° C., 60 days): 0.20 µg/mL
Stability of Cannabinoids in AB Red ([2]; 21-25° C., 90 days): 0.19 µg/mL
Stability of Cannabinoids in AB Red ([2]; 21-25° C., 120 days): 0.19 µg/mL
Stability of Cannabinoids in AB Red ([2]; 21-25° C., 150 days): 0.20 µg/mL
Stability of Cannabinoids in AB Red ([2]; 21-25° C., 180 days): 0.20 µg/mL
Stability of Cannabinoids in AB Red ([2]; 21-25° C., 210 days): 0.19 µg/mL
Stability of Cannabinoids in AB Red ([2]; 21-25° C., 240 days): 0.20 µg/mL
Stability of Cannabinoids in AB Red ([2]; 21-25° C., 270 days): 0.20 µg/mL
Stability of Cannabinoids in AB Red ([2]; 21-25° C., 300 days): 0.19 µg/mL
Stability of Cannabinoids in AB Red ([2]; 21-25° C., 330 days): 0.19 µg/mL
Stability of Cannabinoids in AB Red ([2]; 21-25° C., 390 days): 0.19 µg/mL
Stability of Cannabinoids in AB Red ([2]; 21-25° C., 420 days): 0.19 µg/mL
Stability of Cannabinoids in AB Red ([2]; 21-25° C., 450 days): 0.19 µg/mL
Stability of Cannabinoids in AB Red ([2]; 21-25° C., 480 days): 0.19 µg/mL
Stability of Cannabinoids in AB Red ([2]; 21-25° C., 510 days): 0.19 µg/mL
Stability of Cannabinoids in AB Red ([2]; 21-25° C., 540 days): 0.19 µg/mL
Stability of Cannabinoids in AB Red ([2]; 21-25° C., 570 days): 0.18 µg/mL
